Measured values published in patent US20260209286A1, “SEA CUCUMBER-DERIVED HOLOTOCIN PEPTIDE AND USES THEREOF” (NATIONAL MARINE BIODIVERSITY INSTITUTE OF KOREA, priority 2022, published 2026).
Where two headings read alike, the source gives them in different places. Where a SMILES comes first, the peptide text is derived from it. Bridges are numbered along the chain shown (N, C = ends). Where no end group is shown, it is not given here.

Tests used:
[1] = tested on: epidermal keratinocytes HaCaT; assay: CCK-8 cytotoxicity assay in HaCaT cells; details: 10, 1 and 0.1 μM, 24 and 72 hours
kidney cell line 293T [2] = assay: CCK-8 cytotoxicity assay in 293T cells; details: 10, 1 and 0.1 μM, 24 and 72 hours
Sox2 = assay: RT-PCR of regeneration-related gene Sox2 in HaCaT skin cells; assay type: cell-based; details: 1 μM, 24 hours
Oct4 = assay: RT-PCR of regeneration-related gene Oct4 in HaCaT skin cells; assay type: cell-based; details: 1 μM, 24 hours
rat hypothalamic neurons = details: cited from earlier work
kidney cell line 293T [3] = tested on: kidney cell line 293T
[4] = tested on: epidermal keratinocytes HaCaT
[5] = tested on: epidermal keratinocytes HaCaT; assay: Size of stem cell spheroids formed in HaCaT cells; assay type: cell-based; details: 10, 1 and 0.1 μM, cultured 10 days
Experimental: (§1) For the formation of spheroids, the cells prepared in Preparation Example 2 were cultured in Aggrewell 800 plates pretreated with an anti-Adherence rinsing solution, using a DMEM-F12 medium containing a stem cell-permissive medium supplemented with 20 ng/ml EGF, 20 ng/ml basic fibroblast growth factor (bFGf), and B27 Serum-free Supplement (50×; Invitrogen).
(§2) After the culture period, the spheroids were observed under a microscope, and approximately 25 spheroids were measured.
(§3) Specifically, FIGS. 5 to 8 show the results of adding the peptides prepared in Preparation Example 1 to the renal cell line 293T, and FIGS. 9 to 12 show the results of adding the same peptides to the epidermal keratinocytes HaCaT.

kidney cell line 293T [6] = assay: Size of stem cell spheroids formed in 293T cells; assay type: cell-based; details: 10, 1 and 0.1 μM, cultured 10 days
Experimental: as §1, §2, §3

CC[C@H](C)[C@@H]1NC(=O)[C@H](Cc2ccccc2)NC(=O)[C@@H](N)CSSC[C@@H](C(=O)N2CCC[C@H]2C(=O)N[C@@H](CC(C)C)C(=O)NCC(N)=O)NC(=O)[C@H](CC(N)=O)NC(=O)[C@H]([C@@H](C)O)NC1=O [Holotocin(HLT), Holotocin] (H-CFITNCPLG-NH2; disulfide 1-6)
cytotoxicity / cell viability [1]: no changes in cytotoxicity or cell proliferation | cytotoxicity / cell viability (kidney cell line 293T [2]): no changes in cytotoxicity or cell proliferation

CC[C@H](C)[C@@H]1NC(=O)[C@H](Cc2ccc(O)cc2)NC(=O)[C@@H](N)CSSC[C@@H](C(=O)N2CCC[C@H]2C(=O)N[C@@H](CC(C)C)C(=O)NCC(N)=O)NC(=O)[C@H](CC(N)=O)NC(=O)[C@H](CCC(N)=O)NC1=O [Oxytocin(OXT), Oxytocin]
expression of stemness-related gene Sox2 (Sox2; HaCaT, RT-PCR): induces the expression | cytotoxicity / cell viability [1]: no changes in cytotoxicity or cell proliferation | expression of stemness-related gene Oct4 (Oct4; HaCaT, RT-PCR): induces the expression | cytotoxicity / cell viability (kidney cell line 293T [2]): no changes in cytotoxicity or cell proliferation | size of spheroids (rat hypothalamic neurons; rat hypothalamic neurons, Salehi et al. 2021): increase the size of spheroids

NC(=O)CC[C@@H]1NC(=O)[C@H](Cc2ccccc2)NC(=O)[C@H](Cc2ccc(O)cc2)NC(=O)[C@@H](N)CSSC[C@@H](C(=O)N2CCC[C@H]2C(=O)N[C@@H](CCCN=C(N)N)C(=O)NCC(N)=O)NC(=O)[C@H](CC(N)=O)NC1=O [Vasopressin(AVP), Vasopressin]
expression of stemness-related gene Sox2 (Sox2): induces the expression | cytotoxicity / cell viability (kidney cell line 293T [3]): no changes in cytotoxicity or cell proliferation | expression of stemness-related gene Oct4 (Oct4): induces the expression | cytotoxicity / cell viability [4]: no changes in cytotoxicity or cell proliferation | size of spheroids (rat hypothalamic neurons): increase the size of spheroids

Octopressin (CFWTNCPVG-NH2; ends and bridges not checked; listed as Octopus vulgaris) [Octopressin(OTP), peptide derived from Octopus minor, hormone similar to oxytocin]
cytotoxicity / cell viability [1]: no changes in cytotoxicity or cell proliferation | change in the size of the stem cell spheroids (in words) [5]: little or no change in the size | cytotoxicity / cell viability (kidney cell line 293T [2]): no changes in cytotoxicity or cell proliferation | change in the size of the stem cell spheroids (in words) (kidney cell line 293T [6]): little or no change in the size
